The test system of one assay is Pythium ultimum. Description: Fungal growth on the surface of soil infected with damping-off disease organism. It counts as in vivo. The conditions noted are these: 6 days, 25° C., 0-8 scale.
Assay [1] concerns Blackgrass (Alopecurus myosuroides). Description: Pre-emergence soil surface spray, blackgrass. The conditions noted are these: soil surface spray 2.8 kg/ha, 21 days, 0=no effect, 100=complete kill. It counts as in vivo. The method, boiled down: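 Visual score 0-100 (0 = no effect, 100 = complete kill) relative to untreated control, taken 21 days after a pre-emergence soil-surface spray at 2.8 kg a.i./ha in 450 l/ha. Compound formulated in 1:1 aqueous acetone; growth at 22° C., RH 65-85%, 14 h/day light at 17,000 lux.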

`CCCS(=O)(=O)N(c1c(C)cccc1C)C(C)C(=O)OCC` (stereo not drawn) [Example 24, N-(1-[ethoxycarbonyl]ethyl)-2',6'-dimethyl-1-propanesulphonanilide]: the “Mycelial Control Score” value in the assay on Pythium ultimum (30 ppm) and with Pythium ultimum (100 ppm) was 0 (<20% inhibition) each time. Also, in assay [1], the “growth regulatory or herbicidal effect score” value was 100.

The record behind these values is patent US4309559A, “Sulphonamides useful as pesticides” (FBC Limited, priority 1977, dated 1982).
